These results are taken from paper PMC6274388, “Deoxyelephantopin from Elephantopus scaber Inhibits HCT116 Human Colorectal Carcinoma Cell Growth through Apoptosis and Cell Cycle Arrest” (Molecules, 2016).

The IC50 is the concentration that gives 50% inhibition. A high value points to weaker potency.

Molecules are shown by their SMILES.

For series [1], the system named is HCT116 cells. The experiment in a line: Nuclear morphological changes, Hoechst 33342/PI staining. It counts as cell-based, human. Conditions: HCT116, 0.75, 1.5 and 3.0 µg/mL, 24 h, dose-dependent. The procedure: 1 × 10^6 HCT116 cells were plated in 60 mm^2 culture dishes and treated with increasing concentrations of DET (0.75, 1.5 and 3.0 µg/mL) while negative control was treated with the vehicle DMSO for 24 h. Then, the cells were collected, washed with PBS and proceed to staining with Hoechst 33342 (40 µg/mL) and propidium iodide solution (10 µg/mL) at room temperature in the dark for 30 min. The cells were then examined by inverted fluorescence microscopy (DM1600B, Leica, Wetzlar, Germany).

The subject of another series is CDK4. The experiment in a line: Western blot, CDK4 in HCT116 cells. Conditions: HCT116, 0.75, 1.5 and 3.0 µg/mL, 24 h. It counts as cell-based, human. The procedure:
(§1) 1 × 10^6 HCT116 cells were plated in 60 mm^2 culture dishes and exposed to varying concentrations of DET (0.75, 1.5 and 3.0 µg/mL) for 24 h. The cells were collected, resuspended in cold RIPA buffer containing protease and phosphatase inhibitors and placed on ice for 5 min followed by centrifugation at 14,000× g for 15 min at 4 °C. 25 μg of total proteins was separated on the 12% SDS-PAGE gels and transferred onto nitrocellulose membranes, followed by the blocking using skim milk/bovine serum albumin for 1 h. Membranes were incubated with primary antibodies (cleaved PARP, cleaved caspase-3, p-p53, p21, CDK2, CDK4, CDK 6, cyclin D1, cyclin A2, cyclin B, cyclin E and GAPDH, Cell Signaling) at 4 °C overnight. Subsequently, the membranes were washed with TBST (0.05% Tween 20 in TBS) and incubated with corresponding anti-mouse/rabbit immunoglobulin G-horseradish peroxidase-conjugated secondary antibody (Cell Signaling, Danvers, MA, USA) at room temperature for 1 h. Then, the membranes were washed with TBST. The bands was detected by using enhanced chemiluminescence (ECL) detection kit (BioRad, Hercules, CA, USA) and visualized using gel documentation system. Protein bands were analyzed quantitatively and qualitatively with Vilber Lourmart.

The test system of series [2] is HCT116 cells. The experiment in a line: Externalization of phosphatidylserine, Annexin V-FITC/PI staining, flow cytometry. The class given is cell-based, human. Conditions: 24 h. As to the method:
1 × 10^6 HCT116 cells were plated in 60 mm^2 culture dishes and exposed to different concentrations of DET (0.75, 1.5 and 3.0 µg/mL) for 24 h. Subsequently, cells were washed with PBS, resuspended in 1× Annexin V binding buffer and stained with Annexin V-fluorescein-isothiocyanate (FITC) (BD) and propidium iodide (PI) in the dark at room temperature for 15 min. 1× binding buffer was then added into each tube. The apoptotic and necrotic cell populations were then examined by flow cytometry. The fluorescence intensity was detected in FL1-A (x-axis) and FL2-A channel (y-axis).

The next series has as its system p21. The experiment in a line: Western blot, p21 in HCT116 cells. The class given is cell-based, human. Particulars: HCT116, 0.75, 1.5 and 3.0 µg/mL, 24 h. The procedure: as §1
On the technique in general: A western blot detects proteins with antibodies after separation by electrophoresis.

A further series concerns cyclin D1. The experiment in a line: Western blot, cyclin D1 in HCT116 cells. Particulars: HCT116, 0.75, 1.5 and 3.0 µg/mL, 24 h. It counts as cell-based, human. As to the method: as §1
The test system of series [3] is CCD841CoN normal colon cells. Description: MTT cytotoxicity assay on CCD841CoN normal colon cells. It counts as cell-based, human. Conditions: for IC50: Homo sapiens, CCD-841CoN, MTT, 72 h. As to the method: (§2) HCT116 human colorectal cancer cells and CCD841-CoN normal cells were obtained from the American Type Culture Collection (ATCC, Manassas, VA, USA). HCT116 cells and CCD841-CoN normal cells were cultured in RPMI-1640 and EMEM media respectively, with 10% v/v heat-inactivated fetal bovine serum (FBS), 100 µg/mL penicillin streptomycin and 50 µg/mL amphotericin B at 37 °C in 5% CO2 incubator.
(§3) To investigate the cytotoxic effect of each fraction and compounds, the MTT assay was utilized. Cells were seeded and exposed to different concentrations (0.38–25 µg/mL) of each fraction which was dissolved in DMSO. 5-fluorouracil (5-FU) was used as positive control. Untreated cells (negative control) were treated with vehicle dimethyl sulfoxide (DMSO). The final concentration of DMSO was below 0.5% v/v in all experiments. MTT (5 mg/mL) was then added to each well after treatment and incubated for another 4 h at 37 °C. Subsequently, the medium was discarded and replaced by 150 µL of DMSO to dissolve the formazan crystals followed by quantified at 570 nm and 650 nm as a background using a microplate reader (Asys UVM340, Biochrom, Eugendorf, Austria). The percentage of cell viability was calculated according to the following equation: Cell viability percentage (%) = (Absorbance of treated cells/absorbance of untreated cells) × 100%.
(In general: Tetrazolium dyes change colour on reduction, which living cells bring about.)

The next series deals with cleaved PARP. Description: Western blot, cleaved PARP in HCT116 cells. It counts as cell-based, human. Conditions: HCT116, 0.75, 1.5 and 3.0 µg/mL, 24 h. The procedure:
as §1

Series [4] has as its system HCT116 cells. Description: Cell cycle distribution by PI flow cytometry. Particulars: 24 h. The class given is cell-based, human. The procedure: 1 × 10^6 HCT116 cells were plated in 60 mm^2 culture dishes and exposed to different concentrations of DET (0.75, 1.5 and 3.0 µg/mL) for 24 h. The cells were harvested and centrifuged at 300× g at room temperature. The cells were then resuspended in 1 mL of buffer solution followed by centrifugation and washing with buffer solution. Subsequently, 250 µL of Solution A (trypsin buffer) was added and incubated for 10 min, followed by addition of 100 µL of Solution B (trypsin inhibitor and RNase buffer) and incubated at room temperature for 10 min. 200 µL of cold PI solution was added, gently mixed and incubated on ice for 10 min in the dark. Finally, samples were assessed by using flow cytometry (BD, San Jose, CA, USA).
(In flow cytometry, cells or beads pass a laser one at a time.)

In the next series the test system is cyclin B1. The experiment in a line: Western blot, cyclin B1 in HCT116 cells. The class given is cell-based, human. Particulars: HCT116, 0.75, 1.5 and 3.0 µg/mL, 24 h. The procedure: as §1
A further series concerns CDK6. The experiment in a line: Western blot, CDK6 in HCT116 cells. It counts as cell-based, human. Particulars: HCT116, 0.75, 1.5 and 3.0 µg/mL, 24 h. The procedure:
as §1

The test system of a further series is CDK2. Description: Western blot, CDK2 in HCT116 cells. The class given is cell-based, human. Particulars: HCT116, 0.75, 1.5 and 3.0 µg/mL, 24 h. The procedure: as §1
Another series relates to phospho-p53. Description: Western blot, phospho-p53 in HCT116 cells. The class given is cell-based, human. Conditions: HCT116, 0.75, 1.5 and 3.0 µg/mL, 24 h. The procedure: as §1
In series [5] the test system is HCT116 human colorectal carcinoma cells. The experiment in a line: MTT cytotoxicity assay on HCT116 cells. It counts as cell-based. Particulars: for cell viability: HCT116, 72 h, 0.39–25.0 µg/mL; for IC50: Homo sapiens, HCT-116, HCT116, MTT. As to the method:
as §2, §3

The test system of a further series is cyclin A2. The experiment in a line: Western blot, cyclin A2 in HCT116 cells. Conditions: HCT116, 0.75, 1.5 and 3.0 µg/mL, 24 h. It counts as cell-based, human. The procedure: as §1
The test system of a further series is cyclin E2. The experiment in a line: Western blot, cyclin E2 in HCT116 cells. Conditions: HCT116, 0.75, 1.5 and 3.0 µg/mL, 24 h. It counts as cell-based, human. The procedure:
as §1

In another series the test system is cleaved caspase-3. Description: Western blot, cleaved caspase-3 in HCT116 cells. It counts as cell-based, human. Particulars: HCT116, 0.75, 1.5 and 3.0 µg/mL, 24 h. The procedure:
as §1

[6] abbreviates: CCD841-CoN normal cell line, mean ± S.E. (n = 9).
Setting [7] is: 72 h, value in brackets after the µg/mL value.

In the case of `C=C(C)C(=O)O[C@H]1CC2=C[C@@H](C/C(C)=C/[C@H]3OC(=O)C(=C)[C@H]13)OC2=O` [Deoxyelephantopin, deoxyelephantopin], the “apoptotic morphological changes (chromatin condensation, cell shrinkage, DNA fragmentation)” value in the series with HCT116 cells [1] is listed as “apoptosis-inducing effect”. For the same compound, the CDK4 protein expression result with CDK4 is given as “significant downregulation”. Besides, the “accumulation of apoptotic cells compared to untreated control” value with HCT116 cells [2] (HCT116, 0.75 μg/mL) is recorded as “significant accumulation of apoptotic cells”. For the same compound, in the series on HCT116 cells [2] (HCT116, 3.0 µg/mL), the “proportion of apoptotic cells (early and late apoptotic phases)” value was 63.63% ± 2.03%. Moreover, the necrotic cell death result in the series with HCT116 cells [2] (HCT116, 0.75–3.0 µg/mL) is listed as “did not significantly induce necrotic cell death”. Besides, in the series with HCT116 cells [2] (Homo sapiens, HCT-116, HCT116, 0.75 μg/mL, representative plot, read-out: Q1-LL cells (annexin−/PI−, viable)), the viability at 0.75 µg/mL amounted to 74.8%. The viability at 1.5 µg/mL in the series on HCT116 cells [2] (Homo sapiens, HCT-116, HCT116, 1.50 μg/mL, representative plot, read-out: Q1-LL cells (annexin−/PI−, viable)) is 59.8%. Besides, the viability at 3 µg/mL in the series on HCT116 cells [2] (Homo sapiens, HCT-116, HCT116, 3.00 μg/mL, representative plot, read-out: Q1-LL cells (annexin−/PI−, viable)) came to 34.1%. Besides, in the series with p21, the p21 expression level entry is recorded as “upregulated”. In addition, the “cyclin D1 protein expression” value in the series on cyclin D1 was “significant downregulation”. Further, the IC50 in [3] (setting [6]) was found to be 21.7 ± 0.92 µg/mL; in series [3] (CCD841CoN normal cells, value in brackets after the µg/mL value) it was 60 µM; in [5] (24 h), 2.36 ± 0.02 µg/mL; in series [5] (48 h), 0.9 ± 0.02 µg/mL; in series [5] (72 h, mean ± S.E. (n = 9)), 0.73 ± 0.01 µg/mL; in series [5] (setting [7]), 2.12 µM. Besides, the “difference in cytotoxicity, CCD841CoN normal cells compared to HCT116 cells” value in series [3] (IC50 at 72 h) was 30 fold. In the series on cleaved PARP, the “cleaved PARP protein expression” value is recorded as “dose-dependent upregulation”. The “cells in the S phase” value is 28.17% ± 0.23% in the series with HCT116 cells [4] (HCT116, 1.5 µg/mL) and 29.25% ± 0.21% with HCT116 cells [4] (HCT116, 3.0 µg/mL). Further, the cell cycle progression entry with HCT116 cells [4] (HCT116, 0.75, 1.5 and 3.0 µg/mL) is “cell cycle arrest at S phase”. In the series on cyclin B1, the “cyclin B1 protein expression” value was “significant downregulation”. The CDK6 protein expression entry with CDK6 is “remain constant”. The CDK2 protein expression entry in the series with CDK2 is “significant downregulation”. For the same compound, the phospho-p53 expression level result in the series on phospho-p53 was “upregulated”. In addition, the cell viability result in [5] was “dose-dependent reduction of cell viability”. Also, the “cyclin A2 protein expression” value in the series with cyclin A2 is on record as “significant downregulation”. For the same compound, the “cyclin E2 protein expression” value with cyclin E2 is given as “significant downregulation”. Also, in the series with cleaved caspase-3, the “cleaved caspase-3 protein expression” value is “dose-dependent upregulation”.

With `C=C(C)C(=O)O[C@H]1CC2=C[C@H](C/C(C)=C/[C@H]3OC(=O)C(=C)[C@H]13)OC2=O` [Isodeoxyelephantopin, isodeoxyelephantopin], in series [5], the cell viability entry is “dose-dependent reduction of cell viability”. Also, the IC50 came out at 0.88 ± 0.02 µg/mL in series [5] (72 h, mean ± S.E. (n = 9)) and 2.56 µM in series [5] (setting [7]).

For the compound `O=c1[nH]cc(F)c(=O)[nH]1` [5-Fluorouracil, 5-fluorouracil, reference compound], the half-maximal inhibitory concentration (IC50) in [3] (setting [6]) was above 25 µg/mL; in series [5] (72 h, mean ± S.E. (n = 9)), 0.73 ± 0.02 µg/mL; in series [5] (setting [7]), 5 µM.
